# Measured values reported in patent publication US10077243B2, “Compounds for treating disorders mediated by metabotropic glutamate receptor 5, and methods of use thereof” (Sunovion Pharmaceuticals Inc., priority 2009, dated 2018).
# Target: T1, human mGluR5 (Homo sapiens, UniProt P41594)
# T1 construct: expressed in transfected cells; host or cells: HEK293 cells stably expressing rat GLAST (EAAT1), stably transfected with pcDNAzeo3.1 carrying synthetic human mGluR5 DNA; zeocin-selected single clones
# Test: In vitro cell-based FLIPR calcium assay for positive modulation of the activation of mGluR5 by glutamate (PAM EC50)
# Conditions: HEK293/GLAST cells expressing recombinant human mGluR5; FLIPR calcium signal; glutamate added at its EC20; read-out: mGluR5 PAM EC50
# How it was run: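 PAM activity was measured as FLIPR calcium fluorescence in the presence of an EC20 glutamate concentration determined daily from a glutamate concentration-response curve. Cells were HEK293/GLAST clones expressing mGluR5, dye-loaded at 25 °C for 45–60 min in HEPES-buffered HBSS; vehicle control was 0.3% DMSO.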
# T1 sequence (P41594 21-1212): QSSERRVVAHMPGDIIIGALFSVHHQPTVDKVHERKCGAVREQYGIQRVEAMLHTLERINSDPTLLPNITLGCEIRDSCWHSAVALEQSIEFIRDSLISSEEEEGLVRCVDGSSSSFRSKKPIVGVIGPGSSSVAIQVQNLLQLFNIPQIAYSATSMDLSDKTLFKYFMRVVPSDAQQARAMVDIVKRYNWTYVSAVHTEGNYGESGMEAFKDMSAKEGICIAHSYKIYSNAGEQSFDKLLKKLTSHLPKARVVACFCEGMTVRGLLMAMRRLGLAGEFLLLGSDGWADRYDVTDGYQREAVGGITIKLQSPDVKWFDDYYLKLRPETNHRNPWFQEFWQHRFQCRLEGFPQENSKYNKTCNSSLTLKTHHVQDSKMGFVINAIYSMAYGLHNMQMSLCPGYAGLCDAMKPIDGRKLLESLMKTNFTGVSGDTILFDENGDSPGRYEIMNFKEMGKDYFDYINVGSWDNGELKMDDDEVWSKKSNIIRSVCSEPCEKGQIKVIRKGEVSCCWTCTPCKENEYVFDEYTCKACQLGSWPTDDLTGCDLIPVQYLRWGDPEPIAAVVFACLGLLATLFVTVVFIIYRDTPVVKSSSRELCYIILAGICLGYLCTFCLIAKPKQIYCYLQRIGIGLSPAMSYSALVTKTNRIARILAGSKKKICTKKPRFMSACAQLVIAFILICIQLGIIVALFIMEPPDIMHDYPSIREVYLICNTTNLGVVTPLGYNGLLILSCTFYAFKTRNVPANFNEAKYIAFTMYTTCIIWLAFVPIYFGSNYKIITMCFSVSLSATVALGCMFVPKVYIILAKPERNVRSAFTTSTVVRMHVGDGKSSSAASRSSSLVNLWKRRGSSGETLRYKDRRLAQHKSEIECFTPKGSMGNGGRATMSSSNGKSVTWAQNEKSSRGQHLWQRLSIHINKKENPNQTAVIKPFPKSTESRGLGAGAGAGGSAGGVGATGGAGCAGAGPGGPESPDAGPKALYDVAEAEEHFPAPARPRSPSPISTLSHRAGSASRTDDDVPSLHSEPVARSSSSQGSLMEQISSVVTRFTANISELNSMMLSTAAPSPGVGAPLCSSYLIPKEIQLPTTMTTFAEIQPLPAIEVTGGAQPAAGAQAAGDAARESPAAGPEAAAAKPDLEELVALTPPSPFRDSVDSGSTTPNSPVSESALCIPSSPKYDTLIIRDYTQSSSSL
row,Compound,EC50 [nM]
1,"CC1(C)CCn2c(nc3cc(/C=C/c4ccccc4F)ccc3c2=O)C1 [Example 20.6, (E)-3-(2-fluorostyryl)-7,7-dimethyl-8,9-dihydro-6H-pyrido[2,1-b]quinazolin-11(7H)-one]",30 to 100
2,"O=c1c2ccc(C#Cc3ccccn3)cc2nc2n1C1CCC2C1 (stereo not drawn) [Example 3.25, 3-(pyridin-2-ylethynyl)-8,9-dihydro-6H-6,9-methanopyrido[2,1-b]quinazolin-11(7H)-one]",10 to 30
3,"CC1Cc2nc3cc(/C=C/c4ccccc4)ccc3c(=O)n2C1 (stereo not drawn) [Example 20.4, (E)-2-methyl-6-styryl-2,3-dihydropyrrolo[2,1-b]quinazolin-9(1H)-one]",30 to 100
4,"O=c1c2c(nc3cc(C#Cc4cccnc4)ccn13)CCCCCC2 [Example 17.3, 3-(pyridin-3-ylethynyl)-8,9,10,11-tetrahydro-6H-cycloocta[d]pyrido[1,2-a]pyrimidin-12(7H)-one]",< 10
5,O=c1c2ccc(C#Cc3ccncc3F)cc2nc2n1CCC1(CC2)OCCO1 [Example 7.16],100 to 300
6,"CC1Cn2c(nc3cc(C#Cc4ccccn4)ccc3c2=O)CCN1C (stereo not drawn) [Example 8.30, 2,3-dimethyl-8-(pyridin-2-ylethynyl)-2,3,4,5-tetrahydro-[1,4]diazepino[7,1-b]quinazolin-11(1H)-one]",100 to 300
7,"O=c1c2ccc(/C=C/c3ccccn3)cc2nc2n1CCCCC2 [Example 20.10, (E)-3-(2-(pyridin-2-yl)vinyl)-7,8,9,10-tetrahydroazepino[2,1-b]quinazolin-12(6H)-one]",30 to 100
8,"CC1CCCCc2nc3cc(C#Cc4ccccn4)ccc3c(=O)n21 (stereo not drawn) [Example 6.44, 10-methyl-3-(pyridin-2-ylethynyl)-7,8,9,10-tetrahydroazepino[2,1-b]quinazolin-12(6H)-one]",< 10
9,"CCC(C)n1cnc2cc(C#Cc3cccc(F)c3)ccc2c1=O (stereo not drawn) [Example 1.19, 3-(sec-butyl)-7-((3-fluorophenyl)ethynyl)quinazolin-4(3H)-one]",< 10
10,"CC(C)(O)c1cnc2cc(C#Cc3cccc(F)c3)ccn2c1=O [Example 13.18, 8-((3-fluorophenyl)ethynyl)-3-(2-hydroxypropan-2-yl)-4H-pyrido[1,2-a]pyrimidin-4-one]",100 to 300

# Further lines, results first:
row,EC50 [nM],Compound
1,30 to 100,"CN1CCCc2nc3cc(C#Cc4cccc(F)c4)ccc3c(=O)n2CC1 [Example 10.4, 9-((3-fluorophenyl)ethynyl)-3-methyl-3,4,5,6-tetrahydro-1H-[1,4]diazocino[8,1-b]quinazolin-12(2H)-one]"
2,< 10,"COCC1CCc2nc3cc(C#Cc4cccc(F)c4)ccc3c(=O)n2C1 (stereo not drawn) [Example 4.33, 3-((3-fluorophenyl)ethynyl)-8-(methoxymethyl)-8,9-dihydro-6H-pyrido[2,1-b]quinazolin-11(7H)-one]"
3,10 to 30,"O=c1c2ccc(C#Cc3cccc(F)c3)cc2nc2n1CCN(Cc1ccccc1)CC2 [Example 8.9, 3-benzyl-8-((3-fluorophenyl)ethynyl)-2,3,4,5-tetrahydro-[1,4]diazepino[7,1-b]quinazolin-11(1H)-one]"
4,100 to 300,"CN1CCCC1Cn1cnc2cc(C#Cc3cccc(F)c3)ccc2c1=O (stereo not drawn) [Example 1.21, 7-((3-fluorophenyl)ethynyl)-3-((1-methylpyrrolidin-2-yl)methyl)quinazolin-4(3H)-one]"
5,100 to 300,"CCCN1CCc2nc3cc(C#Cc4cccc(F)c4)ccc3c(=O)n2CC1 [Example 8.8, 8-((3-fluorophenyl)ethynyl)-3-propyl-2,3,4,5-tetrahydro-[1,4]diazepino[7,1-b]quinazolin-11(1H)-one]"
